From article PMC12136037, “Type II kinase inhibitors that target Parkinson’s disease–associated LRRK2” (Science Advances, 2025)

Legend:
Assay in all cases: DSF 100 kinase selectivity screen;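 note: compound tested at 20 µM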
Format in all cases: binding
[1] = target: T1, ~100 representative kinases (Homo sapiens, UniProt Q8IU85); settings: Protein CAMK1D; average of three replicates
T1 construct: Recombinant protein kinase domains with a concentration of 2 μM
Outline: (§1)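 Each kinase domain, at 2 μM, is mixed with 20 μM test compound and SYPRO Orange in Hepes (20 mM, pH 7.5) with 500 mM NaCl. Temperature is then raised at 3°C/min and fluorescence-monitored unfolding yields the melting temperature change, ΔTm in degrees Celsius.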

[2] = target: T2, ~100 representative kinases (Homo sapiens, UniProt Q96L34); settings: protein MARK4; average of three replicates
T2 construct: Recombinant protein kinase domains with a concentration of 2 μM
T2 sequence (Q96L34 1-752): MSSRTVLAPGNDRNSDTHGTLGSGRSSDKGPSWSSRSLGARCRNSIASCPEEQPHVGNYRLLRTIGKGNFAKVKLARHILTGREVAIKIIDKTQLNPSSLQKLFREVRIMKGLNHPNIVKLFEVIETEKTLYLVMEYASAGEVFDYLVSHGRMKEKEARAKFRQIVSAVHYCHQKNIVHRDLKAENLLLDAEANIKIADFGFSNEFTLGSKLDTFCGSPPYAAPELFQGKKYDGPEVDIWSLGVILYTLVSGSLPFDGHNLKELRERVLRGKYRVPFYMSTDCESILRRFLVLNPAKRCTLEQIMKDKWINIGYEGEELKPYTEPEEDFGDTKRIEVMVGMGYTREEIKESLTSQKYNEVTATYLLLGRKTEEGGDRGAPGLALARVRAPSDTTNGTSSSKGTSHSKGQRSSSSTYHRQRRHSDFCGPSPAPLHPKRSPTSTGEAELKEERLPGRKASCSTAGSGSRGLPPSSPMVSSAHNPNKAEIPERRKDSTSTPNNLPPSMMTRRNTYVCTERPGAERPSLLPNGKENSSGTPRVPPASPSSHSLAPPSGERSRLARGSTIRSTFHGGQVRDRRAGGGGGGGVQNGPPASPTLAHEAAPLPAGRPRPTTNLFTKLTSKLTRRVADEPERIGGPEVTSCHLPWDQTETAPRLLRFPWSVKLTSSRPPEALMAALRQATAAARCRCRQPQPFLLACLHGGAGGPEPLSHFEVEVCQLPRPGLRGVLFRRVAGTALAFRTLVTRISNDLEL
Outline: as §1

[3] = target: T3, ~100 representative kinases (Homo sapiens, UniProt Q13188); settings: Protein STK3; DSF; average of three replicates
T3 construct: Recombinant protein kinase domains with a concentration of 2 μM
T3 sequence (Q13188 1-491): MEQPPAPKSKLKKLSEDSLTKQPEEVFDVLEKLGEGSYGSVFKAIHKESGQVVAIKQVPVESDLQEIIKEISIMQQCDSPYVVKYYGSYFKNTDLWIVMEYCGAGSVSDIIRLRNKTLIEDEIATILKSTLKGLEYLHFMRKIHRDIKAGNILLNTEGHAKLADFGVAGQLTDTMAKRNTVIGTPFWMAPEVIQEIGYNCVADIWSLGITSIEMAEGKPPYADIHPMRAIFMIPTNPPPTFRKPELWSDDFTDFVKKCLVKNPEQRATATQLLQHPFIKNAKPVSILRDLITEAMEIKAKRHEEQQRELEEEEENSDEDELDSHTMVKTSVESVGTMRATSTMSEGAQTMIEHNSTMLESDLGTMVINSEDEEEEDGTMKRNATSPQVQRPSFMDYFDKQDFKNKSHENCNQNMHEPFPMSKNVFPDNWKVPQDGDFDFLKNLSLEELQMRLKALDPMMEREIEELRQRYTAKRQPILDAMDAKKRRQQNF
Outline: as §1

[4] = target: T4, ~100 representative kinases (Homo sapiens, UniProt P11309); settings: protein PIM1; average of three replicates
T4 construct: Recombinant protein kinase domains with a concentration of 2 μM
Outline: as §1

[5] = target: T5, ~100 representative kinases (Homo sapiens, UniProt Q9UKI8); settings: Protein TLK1; DSF; average of three replicates
T5 construct: Recombinant protein kinase domains with a concentration of 2 μM
T5 sequence (Q9UKI8 1-766): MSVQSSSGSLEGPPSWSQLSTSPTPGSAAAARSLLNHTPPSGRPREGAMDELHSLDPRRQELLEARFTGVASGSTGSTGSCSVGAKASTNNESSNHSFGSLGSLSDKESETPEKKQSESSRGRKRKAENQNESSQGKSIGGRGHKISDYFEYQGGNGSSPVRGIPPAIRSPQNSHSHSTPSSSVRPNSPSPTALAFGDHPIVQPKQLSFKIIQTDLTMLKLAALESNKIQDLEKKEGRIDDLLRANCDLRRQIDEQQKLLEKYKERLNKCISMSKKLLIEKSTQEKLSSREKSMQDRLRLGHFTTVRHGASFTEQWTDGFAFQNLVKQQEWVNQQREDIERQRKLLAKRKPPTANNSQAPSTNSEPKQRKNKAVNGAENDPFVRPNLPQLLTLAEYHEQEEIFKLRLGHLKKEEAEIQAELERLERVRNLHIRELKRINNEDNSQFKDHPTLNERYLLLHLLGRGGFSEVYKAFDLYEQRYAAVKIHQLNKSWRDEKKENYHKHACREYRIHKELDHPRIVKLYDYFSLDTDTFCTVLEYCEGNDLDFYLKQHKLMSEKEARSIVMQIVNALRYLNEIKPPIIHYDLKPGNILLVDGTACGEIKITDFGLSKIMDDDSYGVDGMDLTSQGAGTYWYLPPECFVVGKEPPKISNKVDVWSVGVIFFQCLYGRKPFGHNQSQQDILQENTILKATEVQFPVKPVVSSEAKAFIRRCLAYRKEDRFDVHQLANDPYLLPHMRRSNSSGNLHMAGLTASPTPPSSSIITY
Outline: as §1

[6] = target: T6, ~100 representative kinases (Homo sapiens, UniProt Q9UPE1); settings: Protein SRPK3; DSF; average of three replicates
T6 construct: Recombinant protein kinase domains with a concentration of 2 μM
Outline: as §1

[7] = target: T7, ~100 representative kinases (Homo sapiens, UniProt P29317); settings: Protein EPHA2; average of three replicates
T7 construct: Recombinant protein kinase domains with a concentration of 2 μM
Outline: as §1

[8] = target: T8, ~100 representative kinases (Homo sapiens, UniProt P45983); settings: protein MAPK8; average of three replicates
T8 construct: Recombinant protein kinase domains with a concentration of 2 μM
Outline: as §1

[9] = target: T9, ~100 representative kinases (Homo sapiens, UniProt Q13627); settings: Protein DYRK1A; average of three replicates
T9 construct: Recombinant protein kinase domains with a concentration of 2 μM
Outline: as §1

[10] = target: T10, ~100 representative kinases (Homo sapiens, UniProt P12931); settings: Protein SRC; DSF; average of three replicates
T10 construct: Recombinant protein kinase domains with a concentration of 2 μM
Outline: as §1

[11] = target: T11, ~100 representative kinases (Homo sapiens, UniProt P21802); settings: protein FGFR2; average of three replicates
T11 construct: Recombinant protein kinase domains with a concentration of 2 μM
Outline: as §1

T8 sequence (P45983 whole entry, the tested form may be a part): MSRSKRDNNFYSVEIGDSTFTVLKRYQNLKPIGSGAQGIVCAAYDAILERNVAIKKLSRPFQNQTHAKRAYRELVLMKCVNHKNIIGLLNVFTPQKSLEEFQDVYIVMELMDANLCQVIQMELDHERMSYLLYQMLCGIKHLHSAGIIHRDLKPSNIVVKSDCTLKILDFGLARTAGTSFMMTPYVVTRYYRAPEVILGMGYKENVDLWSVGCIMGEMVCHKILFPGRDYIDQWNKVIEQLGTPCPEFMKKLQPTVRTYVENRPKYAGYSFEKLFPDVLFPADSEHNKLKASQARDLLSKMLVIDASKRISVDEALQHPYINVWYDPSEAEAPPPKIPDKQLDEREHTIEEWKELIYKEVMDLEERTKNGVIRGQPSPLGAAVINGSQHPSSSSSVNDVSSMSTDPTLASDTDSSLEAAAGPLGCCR
T10 sequence (P12931 whole entry, the tested form may be a part): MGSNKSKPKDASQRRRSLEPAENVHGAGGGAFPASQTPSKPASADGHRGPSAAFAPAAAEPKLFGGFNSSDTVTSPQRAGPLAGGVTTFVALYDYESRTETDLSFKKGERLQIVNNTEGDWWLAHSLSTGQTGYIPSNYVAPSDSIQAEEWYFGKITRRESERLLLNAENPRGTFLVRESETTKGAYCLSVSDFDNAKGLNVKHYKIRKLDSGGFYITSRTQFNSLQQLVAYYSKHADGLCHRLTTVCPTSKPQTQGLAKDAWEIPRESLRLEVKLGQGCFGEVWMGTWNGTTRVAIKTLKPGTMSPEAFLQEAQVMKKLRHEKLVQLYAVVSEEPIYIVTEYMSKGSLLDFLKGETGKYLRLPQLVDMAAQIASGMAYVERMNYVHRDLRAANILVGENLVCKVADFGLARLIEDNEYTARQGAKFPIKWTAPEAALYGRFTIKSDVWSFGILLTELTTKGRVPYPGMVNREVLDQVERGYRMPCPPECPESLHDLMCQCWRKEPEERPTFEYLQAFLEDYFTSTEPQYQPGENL
T11 sequence (P21802 22-821): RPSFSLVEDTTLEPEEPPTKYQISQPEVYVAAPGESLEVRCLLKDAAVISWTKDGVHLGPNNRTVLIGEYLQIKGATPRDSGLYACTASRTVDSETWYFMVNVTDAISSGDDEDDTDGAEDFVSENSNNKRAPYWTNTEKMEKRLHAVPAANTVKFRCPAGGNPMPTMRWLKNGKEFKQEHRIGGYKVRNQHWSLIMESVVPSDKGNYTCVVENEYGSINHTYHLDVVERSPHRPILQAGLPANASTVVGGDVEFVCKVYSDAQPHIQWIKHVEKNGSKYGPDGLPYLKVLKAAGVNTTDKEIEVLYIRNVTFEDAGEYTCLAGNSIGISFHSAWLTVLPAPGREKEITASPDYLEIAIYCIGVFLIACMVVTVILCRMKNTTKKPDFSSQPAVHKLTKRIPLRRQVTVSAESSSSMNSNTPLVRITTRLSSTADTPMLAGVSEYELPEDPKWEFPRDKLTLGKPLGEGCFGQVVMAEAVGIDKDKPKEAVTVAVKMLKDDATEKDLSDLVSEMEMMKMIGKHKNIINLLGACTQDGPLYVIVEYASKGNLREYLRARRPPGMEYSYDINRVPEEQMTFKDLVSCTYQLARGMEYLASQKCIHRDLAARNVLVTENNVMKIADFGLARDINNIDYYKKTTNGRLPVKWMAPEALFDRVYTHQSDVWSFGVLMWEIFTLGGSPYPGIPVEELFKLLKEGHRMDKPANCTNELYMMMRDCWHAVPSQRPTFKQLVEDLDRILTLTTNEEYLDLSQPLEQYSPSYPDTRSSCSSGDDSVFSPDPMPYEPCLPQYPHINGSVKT
T1 sequence (Q8IU85 whole entry, the tested form may be a part): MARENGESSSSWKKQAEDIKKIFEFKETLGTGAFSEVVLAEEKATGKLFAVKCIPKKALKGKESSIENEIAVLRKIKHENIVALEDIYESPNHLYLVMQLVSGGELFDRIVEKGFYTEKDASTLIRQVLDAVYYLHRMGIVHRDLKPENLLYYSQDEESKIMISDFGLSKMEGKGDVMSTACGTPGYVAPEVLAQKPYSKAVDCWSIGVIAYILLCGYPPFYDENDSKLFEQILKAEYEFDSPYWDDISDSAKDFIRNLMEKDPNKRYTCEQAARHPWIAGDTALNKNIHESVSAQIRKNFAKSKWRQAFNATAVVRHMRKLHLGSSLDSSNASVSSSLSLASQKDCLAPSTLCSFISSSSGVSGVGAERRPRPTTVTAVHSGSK
T4 sequence (P11309 whole entry, the tested form may be a part): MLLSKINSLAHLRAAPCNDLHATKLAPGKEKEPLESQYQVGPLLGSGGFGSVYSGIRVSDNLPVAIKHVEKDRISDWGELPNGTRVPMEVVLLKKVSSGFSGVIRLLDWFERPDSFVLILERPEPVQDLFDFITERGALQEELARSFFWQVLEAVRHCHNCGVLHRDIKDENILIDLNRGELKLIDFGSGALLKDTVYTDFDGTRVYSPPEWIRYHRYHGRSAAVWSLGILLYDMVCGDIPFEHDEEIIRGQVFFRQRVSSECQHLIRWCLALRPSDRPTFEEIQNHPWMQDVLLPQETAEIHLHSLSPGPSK
T6 sequence (Q9UPE1 whole entry, the tested form may be a part): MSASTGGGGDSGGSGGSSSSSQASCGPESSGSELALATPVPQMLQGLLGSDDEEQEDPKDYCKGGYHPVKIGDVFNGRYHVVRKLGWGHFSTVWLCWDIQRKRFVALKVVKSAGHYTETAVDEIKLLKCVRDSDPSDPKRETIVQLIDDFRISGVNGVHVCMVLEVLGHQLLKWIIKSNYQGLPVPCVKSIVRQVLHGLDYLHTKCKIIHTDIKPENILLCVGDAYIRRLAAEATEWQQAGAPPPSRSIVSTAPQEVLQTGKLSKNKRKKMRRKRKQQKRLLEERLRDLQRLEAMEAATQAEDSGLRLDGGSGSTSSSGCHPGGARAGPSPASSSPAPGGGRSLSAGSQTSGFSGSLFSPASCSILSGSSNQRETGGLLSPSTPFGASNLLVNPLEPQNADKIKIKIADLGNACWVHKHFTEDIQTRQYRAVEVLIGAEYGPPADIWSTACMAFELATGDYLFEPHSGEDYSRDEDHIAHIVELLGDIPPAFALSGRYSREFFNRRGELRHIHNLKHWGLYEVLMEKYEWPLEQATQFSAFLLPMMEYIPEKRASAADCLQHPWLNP
T7 sequence (P29317 24-976): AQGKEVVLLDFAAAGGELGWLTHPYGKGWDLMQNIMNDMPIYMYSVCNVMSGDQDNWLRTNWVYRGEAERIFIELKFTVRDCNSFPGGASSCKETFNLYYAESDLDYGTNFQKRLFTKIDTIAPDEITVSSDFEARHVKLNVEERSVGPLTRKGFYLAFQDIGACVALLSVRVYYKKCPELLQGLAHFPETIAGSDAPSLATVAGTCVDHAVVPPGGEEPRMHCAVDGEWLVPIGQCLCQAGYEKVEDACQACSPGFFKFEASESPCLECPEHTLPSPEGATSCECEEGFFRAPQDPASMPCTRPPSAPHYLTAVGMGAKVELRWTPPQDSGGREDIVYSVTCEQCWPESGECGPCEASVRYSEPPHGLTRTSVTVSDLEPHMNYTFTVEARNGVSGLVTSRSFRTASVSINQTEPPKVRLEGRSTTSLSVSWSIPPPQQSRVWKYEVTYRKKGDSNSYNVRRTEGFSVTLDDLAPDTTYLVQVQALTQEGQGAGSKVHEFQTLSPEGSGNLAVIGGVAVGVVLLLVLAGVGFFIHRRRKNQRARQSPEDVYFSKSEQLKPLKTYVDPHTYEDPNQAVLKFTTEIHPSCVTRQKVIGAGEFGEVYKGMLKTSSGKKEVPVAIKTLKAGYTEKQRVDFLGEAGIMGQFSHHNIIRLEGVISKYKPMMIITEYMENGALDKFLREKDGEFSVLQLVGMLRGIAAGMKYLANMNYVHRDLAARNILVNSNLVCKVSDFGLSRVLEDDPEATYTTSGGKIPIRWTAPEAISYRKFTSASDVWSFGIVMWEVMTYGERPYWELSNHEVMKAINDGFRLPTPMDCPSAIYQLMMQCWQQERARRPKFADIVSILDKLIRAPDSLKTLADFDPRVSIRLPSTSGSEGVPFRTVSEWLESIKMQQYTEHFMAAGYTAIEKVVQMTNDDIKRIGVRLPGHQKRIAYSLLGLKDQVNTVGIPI

Row | dTm [1] | dTm [2] | dTm [3] | dTm [4] | dTm [5] | dTm [6] | dTm [7] | dTm [8] | dTm [9] | dTm [10] | dTm [11] | SMILES
1 | 1.52 K | 1.77 K | 2.54 K | 1.64 K | 1.59 K | 0.82 K | 0.41 K | 1.19 K | -0.23 K | 0.35 K | 2.02 K | O=C(Nc1cc(F)cc(Br)c1)C1(C(=O)Nc2cccc(-c3c[nH]c4ncnc(N5CCOCC5)c34)c2)CC1 [Compound 27]
2 | -1.41 K | 2.27 K | 5.34 K | -0.51 K | -1.11 K | 2.74 K | 1.72 K | 0.26 K | 0.49 K | 0.65 K | 1.54 K | COc1ccc(NC(=O)C2(C(=O)Nc3cccc(-c4c[nH]c5ncnc(N6CCOCC6)c45)c3)CC2)cc1 [Compound 16]
3 | -0.23 K | -1.19 K | 5.14 K | 1.31 K | -1.50 K | 3.14 K | 3.08 K | 1.42 K | -4.19 K | 0.05 K | -0.31 K | Cc1ccc(-n2nc(C(C)(C)C)cc2NC(=O)Nc2cccc(-c3c[nH]c4nc(Cl)nc(N5CCOCC5)c34)c2)cc1 [Compound 30]
4 | -0.16 K | -0.13 K | 0.97 K | 0.44 K | 0.65 K | – | 0.40 K | 0.60 K | -0.0472 K | -0.11 K | 0.49 K | CCNc1nc(Nc2cc(F)c(C(=O)N3CCOCC3)cc2OC)ncc1C(F)(F)F [GNE-7915]

Continued, compound first:

Row | SMILES | dTm [1] | dTm [2] | dTm [3] | dTm [4] | dTm [5] | dTm [6] | dTm [7] | dTm [8] | dTm [9] | dTm [10] | dTm [11]
5 | Cc1ccc(NC(=O)C2(C(=O)Nc3cccc(-c4c[nH]c5ncnc(N6CCOCC6)c45)c3)CC2)cc1 [Compound 14] | -1.76 K | 3.97 K | 7.94 K | 1.13 K | -0.87 K | 5.15 K | 7.05 K | 0.90 K | 3.30 K | 1.11 K | 1.78 K
6 | Cc1cc(NC(=O)C2(C(=O)Nc3ccc(F)cc3)CC2)cc(-c2c[nH]c3ncnc(N4CCOCC4)c23)c1 [Compound 6] | 1.65 K | -6.12 K | 6.70 K | 1.27 K | 1.18 K | 4.54 K | 3.21 K | 2.19 K | -0.88 K | 0.20 K | 1.97 K
7 | O=C(Nc1ccc(Cl)cc1)C1(C(=O)Nc2cccc(-c3c[nH]c4ncnc(N5CCOCC5)c34)c2)CC1 [Compound 13] | 0.67 K | 5.82 K | 10.20 K | 4.69 K | 0.97 K | 8.47 K | 8.00 K | 3.26 K | 8.77 K | 1.70 K | 3.14 K
8 | COc1cc2c(Oc3ccc(NC(=O)C4(C(=O)Nc5ccc(F)cc5)CC4)cc3F)ccnc2cc1OCCCN1CCOCC1 [Foretinib, reference compound] | 0.45 K | 1.64 K | 8.88 K | 1.41 K | 0.36 K | 7.41 K | – | 2.68 K | 4.04 K | 8.21 K | 7.20 K
9 | Cc1ccc(C(=O)Nc2ccc(CN3CCN(C)CC3)c(C(F)(F)F)c2)cc1C#Cc1cnc2cccnn12 [Ponatinib, reference compound] | – | -0.48 K | – | – | – | – | 16.48 K | – | – | 1.53 K | 12.49 K
10 | C[C@@H]1CN(c2cc(-c3n[nH]c4ccc(OC5(C)CC5)cc34)ncn2)C[C@H](C)O1 [MLi2] | 2.16 K | -0.55 K | 0.09 K | 0.81 K | 0.0124 K | – | 0.27 K | 0.56 K | 0.53 K | 0.28 K | -0.06 K
11 | Cn1cc(-c2c[nH]c3ncnc(N4CCOCC4)c23)cc1C#N [PFE-360] | -1.69 K | 3.49 K | 6.99 K | 1.04 K | -0.11 K | – | 0.68 K | 0.89 K | 3.25 K | -0.08 K | 0.89 K
12 | Cc1ccc(C(=O)Nc2ccc(CN3CCN(C)CC3)c(C(F)(F)F)c2)cc1C#Cc1c[nH]c2ncnc(N3CCOCC3)c12 [Compound 1] | 0.56 K | 1.18 K | 10.52 K | 1.54 K | 0.86 K | – | 3.44 K | 2.18 K | -1.40 K | 1.15 K | 4.16 K
13 | Cc1ccc(C(=O)Nc2ccc(CN3CCN(C)CC3)c(C(F)(F)F)c2)cc1C#Cc1cnc2[nH]ncc2c1 [GZD-824, reference compound] | -0.60 K | 1.02 K | 7.78 K | -0.44 K | -0.0844 K | – | 17.23 K | 4.08 K | -2.15 K | 2.45 K | 13.32 K
14 | CN[C@@H]1C[C@H]2O[C@@](C)([C@@H]1OC)n1c3ccccc3c3c4c(c5c6ccccc6n2c5c31)C(=O)NC4 [Staurosporine] | – | 15.90 K | 16.47 K | – | – | 4.52 K | – | – | – | – | –
